# Data reported in ChEMBL document CHEMBL1201861, “Genomics of Drug Sensitity in Cancer screening data, Wellcome Trust Sanger Institute”.
# Counter-ions that a name gives are not always drawn.
# What was measured:
# COLO-792 = experiment: cells; format: functional, cell-based, Homo sapiens; settings: Homo sapiens, COLO-792
# Description: SANGER: Inhibition of human COLO-792 cell growth in a cell viability assay.
# Capan-2 = experiment: cells; format: functional, cell-based, Homo sapiens; settings: Homo sapiens, Capan-2;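 also: Capan-2 cell growth inhibition, read out with a viability assay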
# Description: SANGER: Inhibition of human Capan-2 cell growth in a cell viability assay.
# EFO-27 = experiment: cells; format: functional, cell-based, Homo sapiens; settings: Homo sapiens, EFO-27;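 also: growth inhibition of EFO-27 cells, read out with a cell viability assay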
# Description: SANGER: Inhibition of human EFO-27 cell growth in a cell viability assay.
# ESS-1 = experiment: cells; format: functional, cell-based, Homo sapiens; settings: Homo sapiens, ESS-1;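 also: growth inhibition of human ESS-1 cells, read out by a cell viability assay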
# Description: SANGER: Inhibition of human ESS-1 cell growth in a cell viability assay.
# G-402 = experiment: cells; format: functional, cell-based, Homo sapiens; settings: Homo sapiens, G-402
# Description: SANGER: Inhibition of human G-402 cell growth in a cell viability assay.
# GDM-1 = experiment: cells; format: functional, cell-based, Homo sapiens; settings: Homo sapiens, GDM-1;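 also: cell viability readout used to measure growth inhibition of human GDM-1 cells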
# Description: SANGER: Inhibition of human GDM-1 cell growth in a cell viability assay.
# HCC1569 = experiment: cells; format: functional, cell-based, Homo sapiens; settings: Homo sapiens, HCC1569;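 also: growth inhibition of human HCC1569 cells, read out with a cell viability assay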
# Description: SANGER: Inhibition of human HCC1569 cell growth in a cell viability assay.
# HCC70 = experiment: cells; format: functional, cell-based, Homo sapiens; settings: Homo sapiens, HCC70;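 also: cell viability assay measuring how strongly the compound suppresses proliferation of HCC70 cells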
# Description: SANGER: Inhibition of human HCC70 cell growth in a cell viability assay.
# HuO-3N1 = experiment: cells; format: functional, cell-based, Homo sapiens; settings: Homo sapiens, HuO-3N1;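 also: cell viability readout used to measure how strongly compounds suppress proliferation of human HuO-3N1 cells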
# Description: SANGER: Inhibition of human HuO-3N1 cell growth in a cell viability assay.
# HuP-T4 = experiment: cells; format: functional, cell-based, Homo sapiens; settings: Homo sapiens, HuP-T4;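 also: cell viability assay measuring how much HuP-T4 cell growth is inhibited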
# Description: SANGER: Inhibition of human HuP-T4 cell growth in a cell viability assay.
# IGROV-1 = experiment: cells; format: functional, cell-based, Homo sapiens; settings: Homo sapiens, IGROV-1;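 also: reduction of IGROV-1 cell growth, read out with a viability assay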
# Description: SANGER: Inhibition of human IGROV-1 cell growth in a cell viability assay.
# IM-9 = experiment: SANGER: Inhibition of human IM-9 cell growth in a cell viability assay.; format: functional, cell-based; settings: Homo sapiens, IM-9
# IST-SL2 = experiment: cells; format: functional, cell-based, Homo sapiens; settings: Homo sapiens, IST-SL2;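 also: growth inhibition of human IST-SL2 cells, read out by a cell viability assay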
# Description: SANGER: Inhibition of human IST-SL2 cell growth in a cell viability assay.
# KYSE-410 = experiment: cells; format: functional, cell-based, Homo sapiens; settings: Homo sapiens, KYSE-410;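 also: growth inhibition of KYSE-410 cells, measured through a cell viability readout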
# Description: SANGER: Inhibition of human KYSE-410 cell growth in a cell viability assay.
# LCLC-97TM1 = experiment: cells; format: functional, cell-based, Homo sapiens; settings: Homo sapiens, LCLC-97TM1;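 also: cell viability assay measuring growth inhibition of human LCLC-97TM1 cells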
# Description: SANGER: Inhibition of human LCLC-97TM1 cell growth in a cell viability assay.
# MDA-MB-157 = experiment: cells; format: functional, cell-based, Homo sapiens; settings: Homo sapiens, MDA-MB-157
# Description: SANGER: Inhibition of human MDA-MB-157 cell growth in a cell viability assay.
# MHH-CALL-2 = experiment: cells; format: functional, cell-based, Homo sapiens; settings: Homo sapiens, MHH-CALL-2;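 also: growth inhibition of the cell line, read out in a cell viability assay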
# Description: SANGER: Inhibition of human MHH-CALL-2 cell growth in a cell viability assay.
# MRK-nu-1 = experiment: cells; format: functional, cell-based, Homo sapiens; settings: Homo sapiens, MRK-nu-1;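 also: cell viability assay measuring growth suppression of human MRK-nu-1 cells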
# Description: SANGER: Inhibition of human MRK-nu-1 cell growth in a cell viability assay.
# NCI-H1417 = experiment: cells; format: functional, cell-based, Homo sapiens; settings: Homo sapiens, NCI-H1417;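 also: human NCI-H1417 cells, growth inhibition determined with a cell viability readout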
# Description: SANGER: Inhibition of human NCI-H1417 cell growth in a cell viability assay.
# NCI-H1882 = experiment: cells; format: functional, cell-based, Homo sapiens; settings: Homo sapiens, NCI-H1882;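 also: growth inhibition of the cell line, determined with a viability assay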
# Description: SANGER: Inhibition of human NCI-H1882 cell growth in a cell viability assay.
# NCI-H2141 = experiment: cells; format: functional, cell-based, Homo sapiens; settings: Homo sapiens, NCI-H2141;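 also: growth inhibition of human NCI-H2141 cells, read out with a cell viability assay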
# Description: SANGER: Inhibition of human NCI-H2141 cell growth in a cell viability assay.
# NCI-H28 = experiment: cells; format: functional, cell-based, Homo sapiens; settings: Homo sapiens, NCI-H28;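 also: growth inhibition of human NCI-H28 cells, read out as cell viability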
# Description: SANGER: Inhibition of human NCI-H28 cell growth in a cell viability assay.
# NCI-H345 = experiment: cells; format: functional, cell-based, Homo sapiens; settings: Homo sapiens, NCI-H345;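 also: growth inhibition of NCI-H345 cells measured with a cell viability assay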
# Description: SANGER: Inhibition of human NCI-H345 cell growth in a cell viability assay.
# NCI-H520 = experiment: cells; format: functional, cell-based, Homo sapiens; settings: Homo sapiens, NCI-H520;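 also: growth inhibition of NCI-H520 cells, measured by a cell viability assay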
# Description: SANGER: Inhibition of human NCI-H520 cell growth in a cell viability assay.
# NCI-H889 = experiment: cells; format: functional, cell-based, Homo sapiens; settings: Homo sapiens, NCI-H889;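 also: cell growth inhibition of the cell line, read out with a viability assay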
# Description: SANGER: Inhibition of human NCI-H889 cell growth in a cell viability assay.
# OVCAR-5 = experiment: cells; format: functional, cell-based, Homo sapiens; settings: Homo sapiens, OVCAR-5;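 also: growth inhibition of human OVCAR-5 cells, read out with a cell viability assay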
# Description: SANGER: Inhibition of human OVCAR-5 cell growth in a cell viability assay.
# P31-FUJ = experiment: cells; format: functional, cell-based, Homo sapiens; settings: Homo sapiens, P31-FUJ;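 also: growth inhibition of P31-FUJ cells, read out with a viability assay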
# Description: SANGER: Inhibition of human P31-FUJ cell growth in a cell viability assay.
# PANC-03-27 = experiment: cells; format: functional, cell-based, Homo sapiens; settings: Homo sapiens, PANC-03-27
# Description: SANGER: Inhibition of human PANC-03-27 cell growth in a cell viability assay.
# RVH-421 = experiment: cells; format: functional, cell-based, Homo sapiens; settings: Homo sapiens, RVH-421
# Description: SANGER: Inhibition of human RVH-421 cell growth in a cell viability assay.
# SK-MES-1 = experiment: cells; format: functional, cell-based, Homo sapiens; settings: Homo sapiens, SK-MES-1;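 also: growth inhibition of human SK-MES-1 cells, read out with a cell viability assay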
# Description: SANGER: Inhibition of human SK-MES-1 cell growth in a cell viability assay.
# SN12C = experiment: cells; format: functional, cell-based, Homo sapiens; settings: Homo sapiens, SN12C;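 also: growth inhibition of human SN12C cells, measured by a cell viability assay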
# Description: SANGER: Inhibition of human SN12C cell growth in a cell viability assay.
# SNU-C1 = experiment: cells; format: functional, cell-based, Homo sapiens; settings: Homo sapiens, SNU-C1;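 also: growth inhibition of SNU-C1 human cells, read out by a cell viability assay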
# Description: SANGER: Inhibition of human SNU-C1 cell growth in a cell viability assay.
# SW1463 = experiment: cells; format: functional, cell-based, Homo sapiens; settings: Homo sapiens, SW1463;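 also: growth inhibition of SW1463 cells, determined with a cell viability assay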
# Description: SANGER: Inhibition of human SW1463 cell growth in a cell viability assay.
# SW1710 = experiment: cells; format: functional, cell-based, Homo sapiens; settings: Homo sapiens, SW1710;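 also: growth inhibition of SW1710 cells, determined with a cell viability assay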
# Description: SANGER: Inhibition of human SW1710 cell growth in a cell viability assay.
# SW1990 = experiment: cells; format: functional, cell-based, Homo sapiens; settings: Homo sapiens, SW1990
# Description: SANGER: Inhibition of human SW1990 cell growth in a cell viability assay.
# SW756 = experiment: cells; format: functional, cell-based, Homo sapiens; settings: Homo sapiens, SW756;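 also: growth inhibition of human SW756 cells, read out with a cell viability assay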
# Description: SANGER: Inhibition of human SW756 cell growth in a cell viability assay.
# T-24 = experiment: cells; format: functional, cell-based, Homo sapiens; settings: Homo sapiens, T-24;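 also: growth inhibition of T-24 cells, read out with a cell viability assay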
# Description: SANGER: Inhibition of human T-24 cell growth in a cell viability assay.
# T47D = experiment: cells; format: functional, cell-based, Homo sapiens; settings: Homo sapiens, T47D;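 also: growth inhibition of human T47D cells, measured with a cell viability assay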
# Description: SANGER: Inhibition of human T47D cell growth in a cell viability assay.
# 5637 = experiment: cells; format: functional, cell-based, Homo sapiens; settings: Homo sapiens
# Description: SANGER: Inhibition of human 5637 cell growth in a cell viability assay.
# CA46 = experiment: cells; format: functional, cell-based, Homo sapiens; settings: Homo sapiens, CA46;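 also: growth inhibition of human CA46 cells, read out by a cell viability assay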
# Description: SANGER: Inhibition of human CA46 cell growth in a cell viability assay.
# CAL-12T = experiment: cells; format: functional, cell-based, Homo sapiens; settings: Homo sapiens, CAL-12T;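 also: growth inhibition of human CAL-12T cells, read out with a cell viability assay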
# Description: SANGER: Inhibition of human CAL-12T cell growth in a cell viability assay.
# CAL-54 = experiment: cells; format: functional, cell-based, Homo sapiens; settings: Homo sapiens, CAL-54;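 also: growth inhibition of CAL-54 cells, read out by a viability measurement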
# Description: SANGER: Inhibition of human CAL-54 cell growth in a cell viability assay.
# UO-31 = experiment: cells; format: functional, cell-based, Homo sapiens; settings: Homo sapiens, UO-31
# Description: SANGER: Inhibition of human U031 cell growth in a cell viability assay.
# VM-CUB-1 = experiment: cells; format: functional, cell-based, Homo sapiens; settings: Homo sapiens, VM-CUB-1;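 also: cell viability assay measuring growth inhibition of the human VM-CUB-1 cell line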
# Description: SANGER: Inhibition of human VM-CUB-1 cell growth in a cell viability assay.
compound,measurement,setting,value
CCC/C=C/C=C/C(=O)O[C@H]1/C(=C/C(=O)OC)C[C@H]2C[C@H]([C@@H](C)O)OC(=O)C[C@H](O)C[C@@H]3C[C@H](OC(C)=O)C(C)(C)[C@](O)(C[C@@H]4C/C(=C/C(=O)OC)C[C@H](/C=C/C(C)(C)[C@]1(O)O2)O4)O3 [BRYOSTATIN 1],IC50,COLO-792,> 8 nM
same,IC50,Capan-2,> 8 nM
same,IC50,EFO-27,> 8 nM
same,IC50,ESS-1,> 8 nM
same,IC50,G-402,> 8 nM
same,IC50,GDM-1,> 8 nM
same,IC50,HCC1569,> 8 nM
same,IC50,HCC70,> 8 nM
same,IC50,HuO-3N1,> 8 nM
same,IC50,HuP-T4,> 8 nM
same,IC50,IGROV-1,> 8 nM
same,IC50,IM-9,> 8 nM
same,IC50,IST-SL2,> 8 nM
same,IC50,KYSE-410,> 8 nM
same,IC50,LCLC-97TM1,> 8 nM
same,IC50,MDA-MB-157,> 8 nM
same,IC50,MHH-CALL-2,> 8 nM
same,IC50,MRK-nu-1,> 8 nM
same,IC50,NCI-H1417,> 8 nM
same,IC50,NCI-H1882,> 8 nM
same,IC50,NCI-H2141,> 8 nM
same,IC50,NCI-H28,> 8 nM
same,IC50,NCI-H345,> 8 nM
same,IC50,NCI-H520,> 8 nM
same,IC50,NCI-H889,> 8 nM
same,IC50,OVCAR-5,> 8 nM
same,IC50,P31-FUJ,> 8 nM
same,IC50,PANC-03-27,> 8 nM
same,IC50,RVH-421,> 8 nM
same,IC50,SK-MES-1,> 8 nM
same,IC50,SN12C,> 8 nM
same,IC50,SNU-C1,> 8 nM
same,IC50,SW1463,> 8 nM
same,IC50,SW1710,> 8 nM
same,IC50,SW1990,> 8 nM
same,IC50,SW756,> 8 nM
same,IC50,T-24,> 8 nM
same,IC50,T47D,> 8 nM
same,IC50,5637,> 8 nM
same,IC50,CA46,> 8 nM
same,IC50,CAL-12T,> 8 nM
same,IC50,CAL-54,> 8 nM
same,IC50,UO-31,> 8 nM
same,IC50,VM-CUB-1,> 8 nM
COC1=CC(c2cc3ccccc3[nH]2)=N/C1=C\c1[nH]c(C)cc1C [OBATOCLAX MESYLATE],IC50,COLO-792,132 nM
same,IC50,Capan-2,666 nM
same,IC50,EFO-27,340 nM
same,IC50,ESS-1,72.5 nM
same,IC50,G-402,565 nM
same,IC50,GDM-1,685 nM
same,IC50,HCC1569,18 nM
same,IC50,HCC70,1460 nM
same,IC50,HuO-3N1,401 nM
same,IC50,HuP-T4,41.2 nM
same,IC50,IGROV-1,< 62.5 nM
same,IC50,IM-9,330 nM
same,IC50,IST-SL2,94.7 nM
same,IC50,KYSE-410,98 nM
same,IC50,LCLC-97TM1,55.9 nM
same,IC50,MDA-MB-157,823 nM
same,IC50,MHH-CALL-2,609 nM
same,IC50,MRK-nu-1,49.4 nM
same,IC50,NCI-H1417,265 nM
same,IC50,NCI-H1882,4510 nM
same,IC50,NCI-H2141,1190 nM
same,IC50,NCI-H28,741 nM
same,IC50,NCI-H345,> 16000 nM
same,IC50,NCI-H520,129 nM
same,IC50,NCI-H889,> 16000 nM
same,IC50,OVCAR-5,311 nM
same,IC50,P31-FUJ,> 16000 nM
same,IC50,PANC-03-27,96.7 nM
same,IC50,RVH-421,16.7 nM
same,IC50,SK-MES-1,129 nM
same,IC50,SN12C,886 nM
same,IC50,SNU-C1,> 16000 nM
same,IC50,SW1463,1320 nM
same,IC50,SW1710,40.2 nM
same,IC50,SW1990,239 nM
same,IC50,SW756,38.2 nM
same,IC50,T-24,9940 nM
same,IC50,T47D,1240 nM
same,IC50,5637,83.7 nM
same,IC50,CA46,65.4 nM
same,IC50,CAL-12T,< 62.5 nM
same,IC50,CAL-54,1310 nM
same,IC50,UO-31,814 nM
same,IC50,VM-CUB-1,713 nM
N#Cc1c(O)c2c(-c3ccc(-c4ccccc4O)cc3)csc2[nH]c1=O,IC50,COLO-792,> 1020 nM
same,IC50,Capan-2,> 1020 nM
same,IC50,EFO-27,> 1020 nM
same,IC50,ESS-1,> 1020 nM
same,IC50,G-402,> 1020 nM
same,IC50,GDM-1,25.5 nM
same,IC50,HCC1569,> 1020 nM
same,IC50,HCC70,> 1020 nM
same,IC50,HuO-3N1,> 1020 nM
same,IC50,HuP-T4,> 1020 nM
same,IC50,IGROV-1,> 1020 nM
same,IC50,IM-9,> 1020 nM
same,IC50,IST-SL2,> 1020 nM
same,IC50,KYSE-410,> 1020 nM
same,IC50,LCLC-97TM1,> 1020 nM
same,IC50,MDA-MB-157,824 nM
same,IC50,MHH-CALL-2,> 1020 nM
same,IC50,MRK-nu-1,178 nM
same,IC50,NCI-H1417,439 nM
same,IC50,NCI-H1882,409 nM
same,IC50,NCI-H2141,633 nM
same,IC50,NCI-H28,> 1020 nM
same,IC50,NCI-H345,> 1020 nM
same,IC50,NCI-H520,> 1020 nM
same,IC50,NCI-H889,> 1020 nM
same,IC50,OVCAR-5,> 1020 nM
same,IC50,P31-FUJ,> 1020 nM
same,IC50,PANC-03-27,> 1020 nM
same,IC50,RVH-421,> 1020 nM
same,IC50,SK-MES-1,> 1020 nM
same,IC50,SN12C,> 1020 nM
same,IC50,SNU-C1,> 1020 nM
same,IC50,SW1463,> 1020 nM
same,IC50,SW1710,> 1020 nM
same,IC50,SW1990,> 1020 nM
same,IC50,SW756,> 1020 nM
same,IC50,T-24,> 1020 nM
same,IC50,T47D,> 1020 nM
same,IC50,5637,> 1020 nM
same,IC50,CA46,196 nM
same,IC50,CAL-12T,> 1020 nM
same,IC50,CAL-54,> 1020 nM
same,IC50,UO-31,> 1020 nM
same,IC50,VM-CUB-1,> 1020 nM
Cc1ccc(-c2c(C(=O)CCl)n(CCCO)c3ncnc(N)c23)cc1,IC50,GDM-1,> 4000 nM
same,IC50,IM-9,> 4000 nM
same,IC50,IST-SL2,> 4000 nM
same,IC50,MHH-CALL-2,> 4000 nM
same,IC50,MRK-nu-1,2520 nM
same,IC50,NCI-H1417,> 4000 nM
same,IC50,NCI-H1882,> 4000 nM
same,IC50,NCI-H2141,> 4000 nM
same,IC50,NCI-H345,> 4000 nM
same,IC50,NCI-H889,> 4000 nM
same,IC50,P31-FUJ,> 4000 nM
same,IC50,SNU-C1,> 4000 nM
same,IC50,CA46,> 4000 nM
C#Cc1cccc(Nc2ncnc3cc(OCCOC)c(OCCOC)cc23)c1 [ERLOTINIB],IC50,GDM-1,> 2000 nM
same,IC50,IM-9,> 2000 nM
same,IC50,IST-SL2,> 2000 nM
same,IC50,MHH-CALL-2,> 2000 nM
same,IC50,MRK-nu-1,> 2000 nM
same,IC50,NCI-H1417,> 2000 nM
same,IC50,NCI-H1882,> 2000 nM
same,IC50,NCI-H2141,> 2000 nM
same,IC50,NCI-H345,> 2000 nM
same,IC50,P31-FUJ,> 2000 nM
same,IC50,SNU-C1,> 2000 nM
same,IC50,CA46,> 2000 nM
